Test system: weed plants such as Lolium multiflorum, Amaranthus retroflexus, Sinapis alba, Stellaria media and Setaria viridis
Assay: Pre-emergence effect on weeds (greenhouse pot test, visual scoring)
Type: in vivo
Conditions: pre-emergence method, application rate of 1 kg or less of active substance per hectare, visual scoring after 3 to 4 weeks vs untreated controls; read-out: herbicidal action (control)
Text: Seeds or sections of rhizome from monocotyledonous and dicotyledonous weed plants were laid out in sandy loam soil in plastic pots, and covered with soil. The compounds according to the invention, formulated as wettable powders or emulsifiable concentrates, were then applied, in the form of aqueous suspensions or emulsions, at various dosages, onto the surface of the covering soil, at an application rate of 600 to 800 l of water/ha (converted).

Q: Which pest or weed control at up to 1000 g/ha does the source give for `COC(=O)Cc1c(C)nn(-c2cccnc2)c1-c1cccc(Cl)c1` [Example 2-17, Methyl [5-(3-chlorophenyl)-3-methyl-1-pyridin-3-yl-1H-pyrazol-4-yl]acetate] here?
A: ≥ 70%

Q: For `Cc1ccncc1-n1nc(C)c(CC(=O)OCC2CC2)c1-c1ccccc1` [Example 3-99, Cyclopropylmethyl [3-methyl-1-(4-methylpyridin-3-yl)-5-phenyl-1H-pyrazol-4-yl]acetate], which pest or weed control at up to 1000 g/ha is on record?
A: ≥ 70%

Q: How did the pest or weed control at up to 1000 g/ha turn out when `Cc1ccncc1-n1nc(C)c(CC(=O)O)c1-c1ccccc1` [Example 1-10, [3-Methyl-1-(4-methylpyridin-3-yl)-5-phenyl-1H-pyrazol-4-yl]acetic acid] was run?
A: ≥ 70%

Test system: weed plants such as Lolium multiflorum, Amaranthus retroflexus, Sinapis alba, Stellaria media and Setaria viridis
Assay: Post-emergence effect on weeds (greenhouse pot test, visual scoring)
Type: in vivo
Conditions: application rate of 500 g or less of active substance per hectare, visual scoring after about 3 to 4 weeks vs untreated controls, read-out: herbicidal action (control)

Q: `COC(=O)Cc1c(C)nn(-c2cccnc2)c1-c1cccc(Cl)c1` [Example 2-17, Methyl [5-(3-chlorophenyl)-3-methyl-1-pyridin-3-yl-1H-pyrazol-4-yl]acetate] was tested. Which pest or weed control at up to 500 g/ha did it give?
A: ≥ 70%

Q: `Cc1ccncc1-n1nc(C)c(CC(=O)OCC2CC2)c1-c1ccccc1` [Example 3-99, Cyclopropylmethyl [3-methyl-1-(4-methylpyridin-3-yl)-5-phenyl-1H-pyrazol-4-yl]acetate] was tested. Which pest or weed control at up to 500 g/ha did it give?
A: ≥ 70%

Q: How did the pest or weed control at up to 500 g/ha turn out when `Cc1ccncc1-n1nc(C)c(CC(=O)O)c1-c1ccccc1` [Example 1-10, [3-Methyl-1-(4-methylpyridin-3-yl)-5-phenyl-1H-pyrazol-4-yl]acetic acid] was run?
A: ≥ 70%

Test system: summer wheat of the cultivar 'Triso'
Assay: Plant growth regulation test: culm stabilization of crop plants
Type: in vivo
Conditions: application rate of 30 to 300 g of active substance per hectare, treated at stage BBCH 31, culm length measured after ears had formed
Procedure, shortened: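 Wettable-powder formulation with adjuvant (1 l/ha) sprayed at 300 l water/ha onto pot-grown plants at BBCH 31, then kept outdoors. After ear formation culm length was measured; culm stabilization is expressed as percent of untreated control.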

Q: With `COC(=O)Cc1c(C)nn(-c2cccnc2)c1-c1cccc(Cl)c1` [Example 2-17, Methyl [5-(3-chlorophenyl)-3-methyl-1-pyridin-3-yl-1H-pyrazol-4-yl]acetate] as the molecule, how does the “longitudinal growth (culm length) of summer wheat” value (“longitudinal growth (culm length)” below) read?
A: effectively shortened

Q: `Cc1ccncc1-n1nc(C)c(CC(=O)OCC2CC2)c1-c1ccccc1` [Example 3-99, Cyclopropylmethyl [3-methyl-1-(4-methylpyridin-3-yl)-5-phenyl-1H-pyrazol-4-yl]acetate] was tested. Which “longitudinal growth (culm length)” value did it give?
A: effectively shortened

Q: `Cc1ccncc1-n1nc(C)c(CC(=O)O)c1-c1ccccc1` [Example 1-10, [3-Methyl-1-(4-methylpyridin-3-yl)-5-phenyl-1H-pyrazol-4-yl]acetic acid] was tested. Which “longitudinal growth (culm length)” value did it give?
A: effectively shortened

Q: With `Cc1ccncc1-n1nc(C)c(CC(=O)O)c1-c1ccc(Cl)cc1Cl` [Example 1-23] as the molecule, how does the “longitudinal growth (culm length)” value read?
A: effectively shortened

Q: How did the “longitudinal growth (culm length)” value turn out when `COC(=O)Cc1c(C)nn(-c2cnccc2C)c1-c1cc(C)cs1` [Example 2-54] was run?
A: effectively shortened

Q: With `COC(=O)Cc1c(C)nn(-c2cnccc2C)c1-c1ccc(Cl)c(Cl)c1` [Example 2-20] as the molecule, how does the “longitudinal growth (culm length)” value read?
A: effectively shortened

Q: For `Cc1nn(-c2cccnc2)c(-c2ccccc2)c1CC(=O)OC(C)C` [Example 3-36], which “longitudinal growth (culm length)” value is on record?
A: effectively shortened

Q: For `Cc1nn(-c2cccnc2)c(-c2ccccc2)c1CC(=O)OCC1CCC1` [Example 3-168], which “longitudinal growth (culm length)” value is on record?
A: effectively shortened

Q: `Cc1ccc(-c2c(CC(=O)O)c(C)nn2-c2cnccc2C)cc1` [Example 1-36] was tested. Which “longitudinal growth (culm length)” value did it give?
A: effectively shortened

Q: With `COC(=O)Cc1c(C)nn(-c2cnccc2C)c1-c1ccc2c(c1)OCO2` [Example 2-66] as the molecule, how does the “longitudinal growth (culm length)” value read?
A: effectively shortened

Q: With `COC(=O)Cc1c(C)nn(-c2cnccc2C)c1-c1ccc(Cl)s1` [Example 2-55] as the molecule, how does the “longitudinal growth (culm length)” value read?
A: effectively shortened

Q: With `COC(=O)Cc1c(C)nn(-c2cccnc2)c1-c1ccc(C)nc1` [Example 2-128] as the molecule, how does the “longitudinal growth (culm length)” value read?
A: effectively shortened

Q: `C#CCOC(=O)Cc1c(C)nn(-c2cccnc2)c1-c1ccccn1` [Example 3-73] was tested. Which “longitudinal growth (culm length)” value did it give?
A: effectively shortened

Q: Which “longitudinal growth (culm length)” value does the source give for `C#CCOC(=O)Cc1cnn(-c2cccnc2)c1-c1ccccc1` [Example 3-64] here?
A: effectively shortened

Q: How did the “longitudinal growth (culm length)” value turn out when `COC(=O)Cc1c(C)nn(-c2cccnc2)c1-c1ccc(C)c(Cl)c1` [Example 2-46] was run?
A: effectively shortened

Q: For `Cc1cc(C)cc(-c2c(CC(=O)O)c(C)nn2-c2cnccc2C)c1` [Example 1-33], which “longitudinal growth (culm length)” value is on record?
A: effectively shortened

Q: With `COC(=O)Cc1c(C)nn(-c2ccc(OC)nc2)c1-c1ccccc1` [Example 2-5] as the molecule, how does the “longitudinal growth (culm length)” value read?
A: effectively shortened

Q: Which “longitudinal growth (culm length)” value does the source give for `Cc1ccc(-c2c(CC(=O)O)c(C)nn2-c2cccnc2)s1` [Example 1-61] here?
A: effectively shortened

Q: Which “longitudinal growth (culm length)” value does the source give for `COC(=O)Cc1c(C)nn(-c2cnccc2C)c1-c1cc(Cl)cc(Cl)c1` [Example 2-68] here?
A: effectively shortened

Q: `COC(=O)Cc1cnn(-c2cccnc2)c1-c1ccccc1` [Example 2-72] was tested. Which “longitudinal growth (culm length)” value did it give?
A: effectively shortened

Q: With `COC(=O)Cc1c(C)nn(-c2cnccc2C)c1-c1sccc1C` [Example 2-53] as the molecule, how does the “longitudinal growth (culm length)” value read?
A: effectively shortened

Q: With `Cc1cc(C)cc(-c2c(CC(=O)O)c(C)nn2-c2cccnc2)c1` [Example 1-43] as the molecule, how does the “longitudinal growth (culm length)” value read?
A: effectively shortened

Q: `Cc1nn(-c2cccnc2)c(-c2ccc(Cl)c(Cl)c2)c1CC(=O)O` [Example 1-27] was tested. Which “longitudinal growth (culm length)” value did it give?
A: effectively shortened

Q: For `Cc1ccncc1-n1nc(C)c(CC(=O)O)c1-c1cccc(Br)c1` [Example 1-40], which “longitudinal growth (culm length)” value is on record?
A: effectively shortened

Q: `Cc1nn(-c2cnccc2Cl)c(-c2ccc(Cl)cc2)c1CC(=O)O` [Example 1-29] was tested. Which “longitudinal growth (culm length)” value did it give?
A: effectively shortened

Q: `C#CCOC(=O)Cc1c(C)nn(-c2cccnc2)c1-c1ccccc1` [Example 3-54] was tested. Which “longitudinal growth (culm length)” value did it give?
A: effectively shortened

Q: `Cc1ccncc1-n1nc(C)c(CC(=O)O)c1-c1cccc(C(F)(F)F)c1` [Example 1-19] was tested. Which “longitudinal growth (culm length)” value did it give?
A: effectively shortened

Q: For `CCOC(=O)Cc1c(C)nn(-c2cnccc2C)c1-c1ccc(Cl)cc1` [Example 3-1], which “longitudinal growth (culm length)” value is on record?
A: effectively shortened

Q: For `Cc1ccnc(-c2c(CC(=O)O)c(C)nn2-c2cccnc2)c1` [Example 1-136], which “longitudinal growth (culm length)” value is on record?
A: effectively shortened

Q: How did the “longitudinal growth (culm length)” value turn out when `COc1ccc(-n2nc(C)c(CC(=O)O)c2-c2ccccc2)cn1` [Example 1-5] was run?
A: effectively shortened

Q: How did the “longitudinal growth (culm length)” value turn out when `COc1ccc(-c2c(CC(=O)O)c(C)nn2-c2cnccc2C)cc1` [Example 1-13] was run?
A: effectively shortened

Q: For `Cc1nn(-c2cccnc2)c(-c2ccccn2)c1CC(=O)OCC1CCCO1` (stereo not drawn) [Example 3-230], which “longitudinal growth (culm length)” value is on record?
A: effectively shortened

Q: With `C=C(C)COC(=O)Cc1c(C)nn(-c2cccnc2)c1-c1ccccc1` [Example 3-156] as the molecule, how does the “longitudinal growth (culm length)” value read?
A: effectively shortened

Q: For `Cc1ccncc1-n1nc(C)c(CC(=O)O)c1-c1ccc(Cl)s1` [Example 1-55], which “longitudinal growth (culm length)” value is on record?
A: effectively shortened

Q: Which “longitudinal growth (culm length)” value does the source give for `COC(=O)Cc1c(-c2ccccc2)nn(-c2cccnc2)c1-c1ccccc1` [Example 2-1] here?
A: effectively shortened

Q: With `CC#CCOC(=O)Cc1c(C)nn(-c2cccnc2)c1-c1ccccn1` [Example 3-136] as the molecule, how does the “longitudinal growth (culm length)” value read?
A: effectively shortened

Q: How did the “longitudinal growth (culm length)” value turn out when `COC(=O)Cc1c(C)nn(-c2cccnc2)c1-c1cc(C)cs1` [Example 2-59] was run?
A: effectively shortened

Q: How did the “longitudinal growth (culm length)” value turn out when `COC(=O)Cc1c(C)nn(-c2cnccc2C)c1-c1cccc(Cl)c1` [Example 2-21] was run?
A: effectively shortened

Q: Which “longitudinal growth (culm length)” value does the source give for `CC#CCOC(=O)Cc1c(C)nn(-c2cccnc2)c1-c1ccc(Cl)cc1` [Example 3-118] here?
A: effectively shortened

Q: With `COC(=O)Cc1c(C)nn(-c2cccnc2)c1-c1ccc(Cl)s1` [Example 2-60] as the molecule, how does the “longitudinal growth (culm length)” value read?
A: effectively shortened

Q: How did the “longitudinal growth (culm length)” value turn out when `C=C(Cl)COC(=O)Cc1c(C)nn(-c2cccnc2)c1-c1ccccn1` [Example 3-203] was run?
A: effectively shortened

Q: Which “longitudinal growth (culm length)” value does the source give for `Cc1nn(-c2cnccc2[S+](C)[O-])c(-c2ccc(Cl)cc2)c1CC(=O)O` (stereo not drawn) [Example 1-64] here?
A: effectively shortened

Q: Which “longitudinal growth (culm length)” value does the source give for `Cc1nn(-c2cccnc2)c(-c2ccc(O)nc2)c1CC(=O)O` [Example 1-70] here?
A: effectively shortened

Q: How did the “longitudinal growth (culm length)” value turn out when `Cc1ccncc1-n1nc(C)c(CC(=O)O)c1-c1ccc(C(F)(F)F)cc1` [Example 1-24] was run?
A: effectively shortened

Q: With `Cc1csc(-c2c(CC(=O)O)c(C)nn2-c2cnccc2C)c1` [Example 1-54] as the molecule, how does the “longitudinal growth (culm length)” value read?
A: effectively shortened
